According to patent US20200171022A1, “FLT3 INHIBITORS FOR IMPROVING PAIN TREATMENTS BY OPIOIDS” (INSERM (Institut National de la Santé et da la Recherche …, priority 2017, published 2020):

Key:
[1] = test system: Male Sprague-Dawley rats; test: Potentiation of morphine-induced analgesia and morphine-dose sparing, paw pressure test (Example 4); settings: for pressure exerted on the hindpaw to obtain withdrawal: BDT001 1 mg/kg, morphine 1.5 mg/kg, mean±S.E.M., 6 animals, saline 250±7.4 g
Experimental: (§1) Paw pressure test: Mechanical hyperalgesia was measured as the threshold to a noxious mechanical stimulus. […] Briefly, a constantly increasing pressure is applied to the rat hind paw until vocalization occurs. A Basile analgesimeter (Bioseb, France; stylus tip diameter, 1 mm) was used. A 600-g cut-off value was determined to prevent tissue damage.
To evaluate the group effects of treatments, two-way ANOVA with repeated measurements were performed followed by Dunnett's post-hoc test. Newman-Keul's test was used for multiple comparisons between groups. A difference was accepted as significant if the probability that it occurred by chance alone was less than 5% (P<0.05).

[2] = test system: Male Sprague-Dawley rats; test: Tolerance to morphine analgesia after chronic morphine treatment, paw pressure test (Example 5); assay type: in vivo, rat; settings: morphine 2 mg/kg s.c. twice daily for 4 days, D0 to D4, control animals
Experimental: Rats were kept under controlled environmental conditions (22° C., 60% relative humidity, 12 h light/dark cycle with lights on at 7:00 A.M., food and water ad libitum). To limit the stress induced by the experimental procedure, the general plan for an experimental phase was as follows: • arrival and housing of the animals: 4 days; • acclimatization of the animals for 10 days to the experimental conditions in order to avoid any possibility of measurement bias being induced by stress; • evaluation of nociceptive threshold baseline • repeated opioid administration and evaluation of treatment effects
as §1
Intrathecal injection was performed via manual lumbar puncture over one minute under anesthesia (isoflurane).
Data are presented as mean±S.E.M. To evaluate the time-course effects of treatments and individual group comparisons, one-way and two-way ANOVA with repeated measurements were performed followed by Dunnett's post hoc test. Bonferroni's test was used for multiple comparisons between groups. […]

[3] = test system: wild-type (Flt3+/+) mice; test: Mechanical pain hypersensitivity after repeated morphine, von Frey test (Example 3); settings: morphine 10 mg/kg twice a day for 4 days, compared to saline
Experimental: Experiments were performed in male mice carrying a homozygous deletion of Flt3 (F1t3KO mice)^24 and their littermates (WT) weighing 25-30 g. […] Animals were maintained in a climate-controlled room on a 12 h light/dark cycle and allowed access to food and water ad libitum. To limit the stress induced by the experimental procedure, the general plan for an experimental phase was as follows: • arrival and housing of the animals: 4 days; • evaluation of nociceptive threshold baseline; • repeated opioid administration and evaluation of treatment effects
Filaments were applied perpendicularly to the plantar surface of the paw. The 50% paw withdrawal threshold was determined in grams by the Dixon nonparametric test. The protocol was repeated until three changes in behavior occurred.
(§2) Data are presented as mean±S.E.M. To evaluate the time-course effects of treatments and individual group comparisons, one-way and two-way ANOVA with repeated measurements were performed followed by Dunnett's post hoc test. Bonferroni's test was used for multiple comparisons between groups. A difference was accepted as significant if the probability that it occurred by chance alone was less than 5% (P<0.05).

[4] = test system: Male Sprague-Dawley rats; test: Morphine-induced mechanical pain hypersensitivity and latent pain sensitization, paw pressure test (Example 6); settings: morphine 2 mg/kg twice daily for 4 days; observed on D2, back to baseline on D9
Experimental: Rats were kept under controlled environmental conditions (22° C., 60% relative humidity, 12 h light/dark cycle with lights on at 7:00 A.M., food and water ad libitum). To limit the stress induced by the experimental procedure, the general plan for an experimental phase was as follows: • arrival and housing of the animals: 4 days; • acclimation of the animals for 10 days to the experimental conditions in order to avoid any possibility of measurement bias being induced by stress; • evaluation of nociceptive threshold baseline • repeated opioid administration and evaluation of treatment effects
Mechanical hyperalgesia was measured as the threshold to a noxious mechanical stimulus. […] Briefly, a constantly increasing pressure is applied to the rat hind paw until vocalization occurs. A Basile analgesimeter (Bioseb, France; stylus tip diameter, 1 mm) was used. A 600-g cut-off value was determined to prevent tissue damage.
as §2

Structure (SMILES): O=C(Nc1cc(Cl)ccc1O)c1cccc(S(=O)(=O)N2CCCCC2)c1 [BDT001, N-(5-chloro-2-hydroxyphenyl)-3-(piperidin-1-ylsulfonyl)benzamide]
- pressure exerted on the hindpaw to obtain withdrawal ([1]; 30 min after administration): 252.5 ± 9.0 g
- morphine-dose sparing effect ([1]; BDT001 1 mg/kg i.p.): 30%
- analgesia by itself ([1]; BDT001 1 mg/kg i.p. alone, 30 min after administration): did not produced analgesia by itself

Structure (SMILES): CN1CC[C@]23c4c5ccc(O)c4O[C@H]2[C@@H](O)C=C[C@H]3[C@H]1C5 [morphine]
- morphine-induced analgesia (percentage of MPE) on repeated morphine administration [2]: induced a progressive decrease in morphine-induced analgesia
- pressure exerted on the hindpaw to obtain withdrawal ([1]; 30 min after administration): 502.5 ± 20.0 g
- morphine-induced analgesia (area under the curve) ([1]; morphine 0.5, 1, 1.5 or 2 mg/kg s.c. alone): induced analgesia in a dose-dependent manner
- nociceptive threshold (mechanical pain hypersensitivity) after repeated morphine [3]: induced a decrease in the nociceptive threshold
- nociceptive threshold (pain hypersensitivity) in morphine-treated animals [4]: significant decrease in the nociceptive threshold
